pIC50, pKd: −log10 of the molar value. Activity calls are given as the source filed them. No cut-off for these calls is given here.
Tests used:
[1] = Metabolic stability in human assessed as intrinsic hepatic clearance by LC/MS-MS analysis; assay type: ADME; details: read-out: CLH
Homo sapiens [2] = organism: Homo sapiens; experiment: Selectivity index, ratio of IC50 for BRD2 BD2 (unknown origin) to IC50 for recombinant human N-terminal His-tagged BRD4 BD1 (44 to 170 residues) expressed in Escherichia coli by AlphaScreen assay
Rattus norvegicus [3] = experiment: In vivo inhibition of MSU-induced pyroptosis in Sprague-Dawley rat model of acute gout arthritis assessed as caspase+/PI- macrophage cells in synovial tissue at 1 mg/kg, ia administered 1 hr before MSU challenge and measured upto 24 hrs by PI staining based flow cytometric analysis (reference value: 21.9 %); assay type: functional; set-up: scale not given: the % may be the effect or the level left
Homo sapiens [4] = organism: Homo sapiens; experiment: Selectivity index, ratio of IC50 for BRD2 BD2 (unknown origin) to IC50 for BRD2 BD1 (unknown origin) by AlphaScreen assay
[5] = Metabolic stability in human liver microsomes assessed as intrinsic clearance measured per mg protein upto 60 mins by LC/MS-MS analysis; assay type: ADME, Microsome; details: read-out: CLH
Homo sapiens [6] = organism: Homo sapiens; experiment: Selectivity index, ratio of IC50 for BRPF1b (unknown origin) to IC50 for recombinant human N-terminal His-tagged BRD4 BD1 (44 to 170 residues) expressed in Escherichia coli by AlphaScreen assay
[7] = Metabolic stability in rat assessed as intrinsic hepatic clearance by LC/MS-MS analysis; assay type: ADME; details: read-out: CLH
[8] = target: T1, Bromodomain-containing protein 4 (Homo sapiens, UniProt O60885); experiment: Inhibition of BRD4 BD1 in human THP1 cells assessed as inhibition of MSU-induced pyroptosis by measuring caspase+/PI+ cells at 1 uM incubated for 1 hr followed by MSU treatment and measured after 12 hrs by PI/caspase 1 double staining based flow cytometric analysis (reference value: 12.7 %); assay type: cell-based; set-up: scale not given: the % may be the effect or the level left
Rattus norvegicus [9] = experiment: In vivo inhibition of MSU-induced ASC activation in synovial tissue of Sprague-Dawley rat model of acute gout arthritis at 1 mg/kg, ia administered 1 hr before MSU challenge and measured upto 24 hrs by immunofluorescence based confocal microscopy analysis; assay type: functional, organism-based
[10] = target: Bromodomain-containing protein 2 (Homo sapiens, UniProt P25440); experiment: Displacement of tetra-acetylated histone H4 peptide (1-21) from BRD2 BD2 (unknown origin) incubated for 30 mins followed by further incubation with tetra-acetylated histone H4 peptide (1-21) for 30 mins by Alphascreen assay
Bromodomain-containing protein 2, sequence (P25440 whole entry): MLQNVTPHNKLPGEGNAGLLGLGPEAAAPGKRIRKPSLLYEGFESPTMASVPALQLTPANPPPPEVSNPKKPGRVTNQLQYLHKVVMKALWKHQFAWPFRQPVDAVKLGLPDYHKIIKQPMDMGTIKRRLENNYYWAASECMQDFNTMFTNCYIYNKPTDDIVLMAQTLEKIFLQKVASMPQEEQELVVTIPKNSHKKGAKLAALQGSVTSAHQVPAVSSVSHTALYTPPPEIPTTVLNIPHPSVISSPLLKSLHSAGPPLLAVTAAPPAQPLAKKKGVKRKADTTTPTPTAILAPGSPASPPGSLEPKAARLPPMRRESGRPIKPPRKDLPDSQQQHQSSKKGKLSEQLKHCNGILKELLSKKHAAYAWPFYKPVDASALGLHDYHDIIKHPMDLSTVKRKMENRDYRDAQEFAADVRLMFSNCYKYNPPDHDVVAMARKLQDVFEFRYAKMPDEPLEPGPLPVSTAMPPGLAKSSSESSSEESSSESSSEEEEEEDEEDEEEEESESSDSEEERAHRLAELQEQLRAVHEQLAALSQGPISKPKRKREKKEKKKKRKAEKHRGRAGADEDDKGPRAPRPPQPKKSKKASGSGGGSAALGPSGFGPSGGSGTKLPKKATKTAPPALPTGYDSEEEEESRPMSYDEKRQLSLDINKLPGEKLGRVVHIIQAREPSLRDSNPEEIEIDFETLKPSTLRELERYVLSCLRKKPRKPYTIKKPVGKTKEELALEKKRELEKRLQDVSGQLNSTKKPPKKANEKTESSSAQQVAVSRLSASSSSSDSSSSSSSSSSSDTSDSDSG

Rattus norvegicus [11] = experiment: Anti-arthritic activity in Sprague-Dawley rat model of acute gout arthritis assessed as reduction in MSU-induced neutrophil infiltration in synovial tissue at 1 mg/kg, ia administered 1 hr before MSU challenge and measured upto 24 hrs hematoxylin and eosin staining based histopathological analysis; assay type: functional, organism-based
[12] = target: T1, Bromodomain-containing protein 4; experiment: Inhibition of BRD4 BD1 in human THP1 cells assessed as inhibition of MSU-induced pyroptosis by measuring caspase-/PI+ cells at 1 uM incubated for 1 hr followed by MSU treatment and measured after 12 hrs by PI/caspase 1 double staining based flow cytometric analysis (reference value: 6.8 %); assay type: cell-based; set-up: scale not given: the % may be the effect or the level left
[13] = target: Bromodomain testis-specific protein (Homo sapiens, UniProt Q58F21); experiment: Displacement of tetra-acetylated histone H4 peptide (1-21) from BRDT BD1 (unknown origin) incubated for 30 mins followed by further incubation with tetra-acetylated histone H4 peptide (1-21) for 30 mins by Alphascreen assay
[14] = target: T1, Bromodomain-containing protein 4; experiment: Binding affinity to immobilized DNA-tagged human BRD4 BD1 by BROMOscan analysis
Rattus norvegicus [15] = experiment: In vivo inhibition of MSU-induced NLRP3 and ASC co-localization in synovial tissue of Sprague-Dawley rat model of acute gout arthritis at 1 mg/kg, ia administered 1 hr before MSU challenge and measured upto 24 hrs by immunofluorescence based confocal microscopy analysis; assay type: functional, organism-based
Rattus norvegicus [16] = experiment: In vivo inhibition of MSU-induced pyroptosis in Sprague-Dawley rat model of acute gout arthritis assessed as caspase-/PI+ macrophage cells in synovial tissue at 1 mg/kg, ia administered 1 hr before MSU challenge and measured upto 24 hrs by PI staining based flow cytometric analysis (reference value: 8.71 %); assay type: functional; set-up: scale not given: the % may be the effect or the level left
[17] = target: T1, Bromodomain-containing protein 4; experiment: Binding affinity to immobilized DNA-tagged human BRD4 BD2 by BROMOscan analysis
[18] = Metabolic stability in human liver microsomes assessed as half life measured upto 60 mins by LC/MS-MS analysis; assay type: ADME, Microsome
Rattus norvegicus [19] = experiment: In vivo inhibition of MSU-induced pyroptosis in Sprague-Dawley rat model of acute gout arthritis assessed as caspase-/PI- macrophage cells in synovial tissue at 1 mg/kg, ia administered 1 hr before MSU challenge and measured upto 24 hrs by PI staining based flow cytometric analysis (reference value: 63.6 %); assay type: functional; set-up: scale not given: the % may be the effect or the level left
[20] = target: T1, Bromodomain-containing protein 4; experiment: Inhibition of BRD4 BD1 in human THP1 cells assessed as inhibition of MSU-induced ASC activation at 1 uM incubated for 1 hr followed by MSU treatment and measured after 12 hrs by immunofluorescence based confocal microscopy analysis; assay type: cell-based
[21] = target: T1, Bromodomain-containing protein 4; experiment: Inhibition of BRD4 BD1 in human THP1 cells assessed as inhibition of MSU-induced NLRP3 inflammasome at 1 uM incubated for 1 hr followed by MSU treatment and measured after 12 hrs by Western blot analysis; assay type: cell-based
[22] = Metabolic stability in rat liver microsomes assessed as half life measured upto 60 mins by LC/MS-MS analysis; assay type: ADME, Microsome
[23] = Metabolic stability in dog liver microsomes assessed as half life measured upto 60 mins by LC/MS-MS analysis; assay type: ADME, Canis lupus familiaris, Microsome
Rattus norvegicus [24] = experiment: In vivo inhibition of MSU-induced pyroptosis in Sprague-Dawley rat model of acute gout arthritis assessed as caspase+/PI+ macrophage cells in synovial tissue at 1 mg/kg, ia administered 1 hr before MSU challenge and measured upto 24 hrs by PI staining based flow cytometric analysis (reference value: 5.79 %); assay type: functional; set-up: scale not given: the % may be the effect or the level left
[25] = Metabolic stability in monkey liver microsomes assessed as half life measured upto 60 mins by LC/MS-MS analysis; assay type: ADME, Macaca mulatta, Microsome; details: rhesus monkey
[26] = Permeability of compound at 10 uM by PAMPA assay; assay type: ADME; details: read-out: permeability
Homo sapiens [27] = organism: Homo sapiens; experiment: Selectivity index, ratio of IC50 BRD2 BD1 (unknown origin) to IC50 for recombinant human N-terminal His-tagged BRD4 BD1 (44 to 170 residues) expressed in Escherichia coli by AlphaScreen assay
[28] = target: T1, Bromodomain-containing protein 4; experiment: Inhibition of BRD4 BD1 in human THP1 cells assessed as Inhibition of MSU-induced IL-1beta secretion at 1 uM incubated for 1 hr followed by MSU treatment and measured after 12 hrs by ELISA; assay type: cell-based
Rattus norvegicus [29] = experiment: Anti-arthritic activity in Sprague-Dawley rat model of acute gout arthritis assessed as reduction in MSU-induced IL-1beta level in synovial tissue at 1 mg/kg, ia administered 1 hr before MSU challenge and measured upto 24 hrs by ELISA; assay type: functional, organism-based
[30] = Metabolic stability in dog assessed as intrinsic hepatic clearance by LC/MS-MS analysis; assay type: ADME, Canis lupus familiaris; details: read-out: CLH
[31] = target: T1, Bromodomain-containing protein 4; experiment: Displacement of tetra-acetylated histone H4 peptide (1-21) from recombinant human N-terminal His-tagged BRD4 BD2 (349 to 460 residues) expressed in Escherichia coli incubated for 30 mins followed by further incubation with tetra-acetylated histone H4 peptide (1-21) for 30 mins by Alphascreen assay
Rattus norvegicus [32] = experiment: Anti-arthritic activity in Sprague-Dawley rat model of acute gout arthritis assessed as reduction in MSU-induced joint swelling at 1 mg/kg, ia administered 1 hr before MSU challenge and measured upto 24 hrs; assay type: functional, organism-based

Q: With `COc1ccccc1S(=O)(=O)Nc1ccc2c3c(cc(-n4cnc(C)c4)nc13)C(=O)N2C` as the molecule, how does the CLint scaled [1] read?
A: Its CLint scaled is 88.4 mL/min/kg.

Q: And the Ratio IC50 (Homo sapiens [2])?
A: Its Ratio IC50 is 244.

Q: What about the Activity (Rattus norvegicus [3]) of the same molecule?
A: Its Activity is 0.43%.

Q: What about the Ratio IC50 (Homo sapiens [4]) of the same molecule?
A: The Ratio IC50 was 2.4.

Q: What about the microsomal CLint [5] of the same molecule?
A: The microsomal CLint was 93.5 µL/min/mg.

Q: And the Ratio IC50 (Homo sapiens [6])?
A: Its Ratio IC50 is 6.5.

Q: What about the CLint scaled [7] of the same molecule?
A: Its CLint scaled is 264 mL/min/kg.

Q: And the Activity [8]?
A: The Activity was 4.4%.

Q: What about the inhibition (Rattus norvegicus [9]) of the same molecule?
A: The inhibition was “Active”.

Q: And the pIC50 [10]?
A: The pIC50 was 4.67.

Q: What about the inhibition (Rattus norvegicus [11]) of the same molecule?
A: The inhibition was “Active”.

Q: What about the Activity [12] of the same molecule?
A: The Activity was 4.9%.

Q: What about the pIC50 [13] of the same molecule?
A: The pIC50 was 6.45.

Q: What about the pKd [14] of the same molecule?
A: The pKd was 6.98.

Q: And the inhibition (Rattus norvegicus [15])?
A: Its inhibition is “Active”.

Q: What about the Activity (Rattus norvegicus [16]) of the same molecule?
A: The Activity was 15.4%.

Q: What about the pKd [17] of the same molecule?
A: Its pKd is under 4.60.

Q: And the half-life [18]?
A: Its half-life is 14.8 min.

Q: And the Activity (Rattus norvegicus [19])?
A: Its Activity is 83.1%.

Q: And the inhibition [20]?
A: The inhibition was “Active”.

Q: What about the inhibition [21] of the same molecule?
A: Its inhibition is “Active”.

Q: What about the half-life [22] of the same molecule?
A: The half-life was 9.45 min.

Q: What about the half-life [23] of the same molecule?
A: The half-life was 10.4 min.

Q: What about the Activity (Rattus norvegicus [24]) of the same molecule?
A: Its Activity is 1.03%.

Q: What about the half-life [25] of the same molecule?
A: Its half-life is 10.3 min.

Q: What about the Papp at 10 µM [26] of the same molecule?
A: Its Papp at 10 µM is 0.117 ×10⁻⁶ cm/s.

Q: And the Ratio IC50 (Homo sapiens [27])?
A: Its Ratio IC50 is 102.

Q: And the inhibition [28]?
A: The inhibition was “Active”.

Q: And the inhibition (Rattus norvegicus [29])?
A: Its inhibition is “Active”.

Q: And the CLint scaled [30]?
A: The CLint scaled was 192 mL/min/kg.

Q: And the pIC50 [31]?
A: Its pIC50 is 4.92.

Q: And the inhibition (Rattus norvegicus [32])?
A: Its inhibition is “Active”.

— ChEMBL document CHEMBL4354830, “Discovery of Benzo[cd]indol-2(1H)-ones and Pyrrolo[4,3,2-de]quinolin-2(1H)-ones as Bromodomain and Extra-Terminal Domain (BET) Inhibitors with Selectivity for the First Bromodomain with Potential High Efficiency against Acute Gouty Arthritis” (J Med Chem, 2019)
